Measured values published in ChEMBL document CHEMBL1154623, “S-glycosyl primary sulfonamides--a new structural class for selective inhibition of cancer-associated carbonic anhydrases” (J Med Chem, 2009).

How the values were obtained:
[1] = Apparent effective permeability by PAMPA method; assay type: ADME; settings: read-out: permeability
[2] = Chemical stability during PAMPA assessed as compound degradation; assay type: physicochemical; settings: read-out: Activity
Carbonic anhydrase 9 = Carbonic anhydrase 9 (Homo sapiens, UniProt Q16790)
Description: Inhibition of human cloned CA9 catalytic domain by stopped flow CO2 hydration assay

| SMILES | Papp [1] [×10⁻⁶ cm/s] | degraded [2] [%] | Ki (Carbonic anhydrase 9) [µM] |
| --- | --- | --- | --- |
| CC(=O)OC[C@H]1O[C@@H](S(N)(=O)=O)[C@H](OC(C)=O)[C@@H](OC(C)=O)[C@@H]1OC(C)=O | < 0.1 | 35 | 3.91 |
| NS(=O)(=O)[C@@H]1O[C@H](CO)[C@@H](O[C@H]2O[C@H](CO)[C@@H](O)[C@H](O)[C@H]2O)[C@H](O)[C@H]1O | < 0.5 | – | 4.22 |
| NS(=O)(=O)[C@@H]1O[C@H](CO)[C@@H](O)[C@H](O)[C@H]1O | < 0.4 | – | 4.05 |
| NS(=O)(=O)[C@@H]1O[C@H](CO)[C@H](O)[C@H](O)[C@H]1O | – | – | 4.19 |
| NS(=O)(=O)[C@@H]1O[C@H](CO)[C@@H](O[C@@H]2O[C@H](CO)[C@H](O)[C@H](O)[C@H]2O)[C@H](O)[C@H]1O | – | – | 4.19 |
| CC(=O)OC[C@H]1O[C@@H](O[C@H]2[C@H](OC(C)=O)[C@@H](OC(C)=O)[C@H](S(N)(=O)=O)O[C@@H]2COC(C)=O)[C@H](OC(C)=O)[C@@H](OC(C)=O)[C@H]1OC(C)=O | – | – | 4.03 |
| CC(=O)OC[C@H]1O[C@@H](S(N)(=O)=O)[C@H](OC(C)=O)[C@@H](OC(C)=O)[C@@H]1O[C@H]1O[C@H](COC(C)=O)[C@@H](OC(C)=O)[C@H](OC(C)=O)[C@H]1OC(C)=O | < 0.02 | – | 4.08 |
| CC(=O)OC[C@H]1O[C@@H](S(N)(=O)=O)[C@H](OC(C)=O)[C@@H](OC(C)=O)[C@H]1OC(C)=O | – | – | 4.09 |
| COC(=O)[C@H]1O[C@@H](S(N)(=O)=O)[C@H](OC(C)=O)[C@@H](OC(C)=O)[C@@H]1OC(C)=O | – | – | 4.15 |
| CC(=O)Nc1nnc(S(N)(=O)=O)s1 [ACETAZOLAMIDE] | < 0.15 | – | – |
| CC1(C)O[C@@H]2[C@@H](CO[C@@]3(COS(N)(=O)=O)OC(C)(C)O[C@@H]23)O1 [TOPIRAMATE] | 0.54 | – | – |
